Experimental data as given in BigSolDB 2.1.

Cc1coc2c1C(=O)C(=O)c1c-2ccc2c(C)cccc12
solubility (mole fraction)
Details	278.15 K	283.15 K	288.15 K	293.15 K	298.15 K	303.15 K	308.15 K	313.15 K	318.15 K	323.15 K
in DMF	0.000919	0.00106	0.00125	0.00146	0.00169	0.00193	0.0022	0.00249	0.00288	0.00335
in acetone	0.00103	0.0012	0.0014	0.00164	0.00194	0.00221	0.00253	0.00287	0.00324	0.0036
in ethanol	6.4e-05	8.08e-05	9.82e-05	0.00012	0.000144	0.000167	0.000198	0.000233	0.000275	0.000332
in ethylene glycol	8.39e-05	9.79e-05	0.000114	0.000132	0.000152	0.000175	0.000201	0.000232	0.000269	0.000317
in isopropanol	0.00029	0.000334	0.000395	0.000456	0.000535	0.000626	0.000729	0.000849	0.00101	0.0012
in methanol	5.56e-05	6.11e-05	6.79e-05	7.64e-05	8.61e-05	9.8e-05	0.000111	0.00013	0.000154	0.000182
in n-butanol	0.000574	0.000636	0.000706	0.000793	0.000903	0.00103	0.00117	0.00135	0.00154	0.00178
in n-propanol	0.000448	0.00051	0.000575	0.00067	0.000756	0.000866	0.000987	0.00113	0.0013	0.00151
in water	5.28e-08	5.74e-08	6.23e-08	6.81e-08	7.47e-08	8.25e-08	9.26e-08	1.04e-07	1.17e-07	1.34e-07
